One assay has as its target FGFR4 kinase (Homo sapiens, UniProt P22455). The assay can be described thus: Inhibition of FGFR4 kinase activity (ULight-labeled JAK-1 peptide, EU665/EU615 reading). As to conditions: FGFR4 kinase 3.85 nM, ATP 100 μM, enzymatic reaction 2 hours. The assay is classed as biochemical. An outline of the steps: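 TR-FRET kinase assay using 3.85 nM FGFR4, 100 μM ATP and 100 nM ULight-JAK-1 (Tyr1023) peptide; 5 min enzyme–compound preincubation, then 2 h at room temperature. Compounds at 11 3-fold dilutions from 2.5 μM down to 0.042 nM, 1% DMSO. IC50 from EU665/EU615 ratio inhibition curves.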

The target in the next assay is FGFR4 V550L kinase (Homo sapiens, UniProt P22455, V550L). The assay is described as follows: Inhibition of FGFR4 V550L mutant kinase activity (ULight-labeled PolyGT, EU665/EU615 reading). Format: biochemical. The following applies: FGFR4 V550L kinase 1 nM, ATP 10 μM, enzymatic reaction 2 hours. An outline of the steps: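 TR-FRET kinase assay: 1 nM FGFR4 V550L, 10 μM ATP, 100 nM ULight-PolyGT substrate, 2 h at room temperature after 5 min compound–enzyme preincubation, 1% DMSO. Compound tested as 11-point 3-fold dilution from 2.5 μM to 0.042 nM final. Signal as EU665/EU615 ratio; IC50 fitted from % inhibition.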
FGFR4 V550L kinase, sequence (P22455 22-802 V550L): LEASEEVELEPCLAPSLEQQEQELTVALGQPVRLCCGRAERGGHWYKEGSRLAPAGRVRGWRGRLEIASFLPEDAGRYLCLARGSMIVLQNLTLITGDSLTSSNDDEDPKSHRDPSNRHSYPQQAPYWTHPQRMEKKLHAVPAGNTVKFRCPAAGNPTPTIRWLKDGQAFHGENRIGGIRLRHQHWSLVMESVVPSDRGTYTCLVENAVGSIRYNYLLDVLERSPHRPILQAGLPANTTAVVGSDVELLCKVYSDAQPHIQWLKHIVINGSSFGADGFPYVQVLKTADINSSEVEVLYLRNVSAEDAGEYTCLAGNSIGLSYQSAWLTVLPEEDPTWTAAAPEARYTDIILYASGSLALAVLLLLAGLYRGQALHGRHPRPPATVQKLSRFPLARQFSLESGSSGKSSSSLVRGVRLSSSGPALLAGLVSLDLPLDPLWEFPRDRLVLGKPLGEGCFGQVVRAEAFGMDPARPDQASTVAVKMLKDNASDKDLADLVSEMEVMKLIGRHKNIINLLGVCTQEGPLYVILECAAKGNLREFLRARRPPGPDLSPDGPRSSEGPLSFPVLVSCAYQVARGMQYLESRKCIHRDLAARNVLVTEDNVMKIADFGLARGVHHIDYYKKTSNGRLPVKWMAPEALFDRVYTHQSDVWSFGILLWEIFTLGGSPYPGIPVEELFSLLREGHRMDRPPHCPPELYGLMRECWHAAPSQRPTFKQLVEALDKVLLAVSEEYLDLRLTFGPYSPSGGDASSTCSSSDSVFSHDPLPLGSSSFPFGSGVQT

The next assay has as its target T1, Ba/F3 ETV6-FGFR4 cells (Homo sapiens, UniProt P22455).
T1 construct: fused on or other part: N-terminal part of ETV6 (TEL), the oligomerising partner that makes the FGFR4 kinase constitutively active; P41212 (Transcription factor ETV6)
The assay is described as follows: Inhibition of cell proliferation (CCK-8), Ba/F3 ETV6-FGFR4 cells. The assay is classed as cell-based. As to conditions: 72 hours of incubation, read-out: Ba/F3 ETV6-FGFR4 IC50. In a few lines: (§1)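 Ba/F3 cells expressing ETV6-FGFR4 or ETV6-FGFR4-V550L exposed for 72 h to 9 concentrations from 4-fold serial dilution (0.25% DMSO final). Viability by CCK-8, OD 450 nm after 1–2 h at 37 °C, relative to untreated and cell-free blanks; IC50 from curve fitting.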

For assay [1], the target named is T2, Ba/F3 ETV6-FGFR4-V550L cells (Homo sapiens, UniProt P22455, V550L, cells depend on it).
T2 construct: fused on or other part: N-terminal part of ETV6 (TEL), the oligomerising partner of the fusion; already named as the first entry; P41212 (Transcription factor ETV6)
T2 sequence (P22455 whole entry V550L, the tested form may be a part): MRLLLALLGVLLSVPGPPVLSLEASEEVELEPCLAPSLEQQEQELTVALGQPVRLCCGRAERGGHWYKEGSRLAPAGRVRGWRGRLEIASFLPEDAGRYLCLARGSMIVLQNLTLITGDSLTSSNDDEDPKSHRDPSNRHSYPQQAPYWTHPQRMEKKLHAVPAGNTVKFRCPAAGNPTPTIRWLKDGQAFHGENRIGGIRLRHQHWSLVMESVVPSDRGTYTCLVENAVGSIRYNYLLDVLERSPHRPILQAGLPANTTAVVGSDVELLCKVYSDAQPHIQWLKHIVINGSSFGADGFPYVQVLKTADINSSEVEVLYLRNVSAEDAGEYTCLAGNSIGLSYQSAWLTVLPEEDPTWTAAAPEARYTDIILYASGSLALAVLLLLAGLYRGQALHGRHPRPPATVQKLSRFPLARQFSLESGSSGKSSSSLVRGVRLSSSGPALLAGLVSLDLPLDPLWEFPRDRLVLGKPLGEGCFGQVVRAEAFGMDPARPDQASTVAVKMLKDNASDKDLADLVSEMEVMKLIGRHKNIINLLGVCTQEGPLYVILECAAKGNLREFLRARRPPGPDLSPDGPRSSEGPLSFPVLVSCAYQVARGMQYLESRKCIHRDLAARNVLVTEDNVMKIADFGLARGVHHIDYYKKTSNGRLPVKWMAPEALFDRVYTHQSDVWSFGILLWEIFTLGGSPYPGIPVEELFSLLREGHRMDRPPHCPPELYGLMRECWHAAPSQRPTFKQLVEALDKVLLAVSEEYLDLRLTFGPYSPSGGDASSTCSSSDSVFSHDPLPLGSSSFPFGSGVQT
The assay can be described thus: Inhibition of cell proliferation (CCK-8), Ba/F3 ETV6-FGFR4-V550L cells. The assay is classed as cell-based. The following applies: 72 hours of incubation, read-out: Ba/F3 ETV6-FGFR4-V550L IC50. In a few lines:
as §1

FGFR4 kinase, sequence (P22455 22-802): as the sequence (P22455 22-802 V550L) above, with L529V counted along it
T1 sequence (P22455 whole entry, change not shown, the tested form may be a part): as the sequence (P22455 whole entry V550L, the tested form may be a part) above, with L550V counted along it

In the case of `C=CC(=O)Nc1cc(N2CCC(N3CCN(CCO)CC3)CC2)ccc1Nc1ncc(C#N)c(Nc2ccccc2OC(C)C)n1` [Example 59, N-(2-((5-cyano-4-((2-isopropoxyphenyl)amino)pyrimidin-2-yl)amino)-5-(4-(4-(2-hydroxyethyl)piperazin-1-yl)piperidin-1-yl)phenyl) acrylamide], the 50% inhibitory concentration (IC50) at FGFR4 kinase was 10 to 50 nM; on FGFR4 V550L kinase, not above 10 nM. The GI50 (at Ba/F3 ETV6-FGFR4 cells; in assay [1]) was not above 10 nM each time.
In the case of `C=CC(=O)Nc1cc(N2CCC(N(C)CCO)CC2)ccc1Nc1ncc(C#N)c(Nc2ccccc2OC(C)C)n1` [Example 60, N-(2-((5-cyano-4-((2-isopropoxyphenyl)amino)pyrimidin-2-yl)amino)-5-(4-((2-hydroxyethyl) (methyl)amino)piperidin-1-yl)phenyl) acrylamide], the IC50 at FGFR4 kinase was 10 to 50 nM; on FGFR4 V550L kinase it was not above 10 nM. Besides, the GI50 (on Ba/F3 ETV6-FGFR4 cells; in assay [1]) was not above 10 nM in each case.
On to `C=CC(=O)Nc1cc(N2CCC(N(C)CCF)CC2)ccc1Nc1ncc(C#N)c(Nc2ccccc2OC(C)C)n1` [Example 61, N-(2-((5-cyano-4-((2-isopropoxyphenyl)amino)pyrimidin-2-yl)amino)-5-(4-((2-fluoroethyl) (methyl)amino)piperidin-1-yl)phenyl) acrylamide], for which the IC50 is 10 to 50 nM against FGFR4 kinase and not above 10 nM against FGFR4 V550L kinase. Also, the GI50 (at Ba/F3 ETV6-FGFR4 cells; in assay [1]) was not above 10 nM in each case.
As to `C=CC(=O)Nc1cc(N2CCC(N(C)C3CCC3)CC2)ccc1Nc1ncc(C#N)c(Nc2ccccc2OC(C)C)n1` [Example 62, N-(2-((5-cyano-4-((2-isopropoxyphenyl)amino)pyrimidin-2-yl)amino)-5-(4-(cyclobutyl(methyl)amino)piperidin-1-yl)phenyl) acrylamide], the 50% inhibitory concentration (IC50) on FGFR4 kinase and at FGFR4 V550L kinase was 10 to 50 nM each time. Also, the GI50 (on Ba/F3 ETV6-FGFR4 cells; in assay [1]) was not above 10 nM each time.
As to `C=CC(=O)Nc1cc(N2CCC(N(C)C3CC3)CC2)ccc1Nc1ncc(C#N)c(Nc2ccccc2OC(C)C)n1` [Example 63, N-(2-((5-cyano-4-((2-isopropoxyphenyl)amino)pyrimidin-2-yl)amino)-5-(4-(cyclopropyl (methyl)amino)piperidin-1-yl)phenyl) acrylamide], the IC50 on FGFR4 kinase is not above 10 nM; at FGFR4 V550L kinase it was 10 to 50 nM. In addition, the GI50 (on Ba/F3 ETV6-FGFR4 cells; in assay [1]) was not above 10 nM throughout.
With `C=CC(=O)Nc1cc(N2CCC(N3CCC(F)CC3)CC2)ccc1Nc1ncc(C#N)c(Nc2ccccc2OC(C)C)n1` [Example 64, N-(2-((5-cyano-4-((2-isopropoxyphenyl)amino)pyrimidin-2-yl)amino)-5-(4-fluoro-[1,4-bipiperidin]-1‘- yl)phenyl) acrylamide], the IC50 on FGFR4 kinase and at FGFR4 V550L kinase was 10 to 50 nM in each case. Further, the GI50 (at Ba/F3 ETV6-FGFR4 cells; in assay [1]) was not above 10 nM throughout.
With `C=CC(=O)Nc1cc(N2CCC(N3CCC(O)CC3)CC2)ccc1Nc1ncc(C#N)c(Nc2ccccc2OC(C)C)n1` [Example 65, N-(2-((5-cyano-4-((2-isopropoxyphenyl)amino)pyrimidin-2-yl)amino)-5-(4-hydroxy-[1,4-bipiperidin]-1′-yl)phenyl) acrylamide], the IC50 on FGFR4 kinase was 10 to 50 nM; against FGFR4 V550L kinase, not above 10 nM. For the same compound, the GI50 (on Ba/F3 ETV6-FGFR4 cells; in assay [1]) was not above 10 nM throughout.
As for `C=CC(=O)Nc1cc(N2CCC(N3CCC(C#N)CC3)CC2)ccc1Nc1ncc(C#N)c(Nc2ccccc2OC(C)C)n1` [Example 66, N-(2-((5-cyano-4-((2-isopropoxyphenyl)amino)pyrimidin-2-yl)amino)-5-(4-cyano-[1,4-bipiperidin]-1′-yl)phenyl) acrylamide], the IC50 is not above 10 nM on FGFR4 kinase and 10 to 50 nM on FGFR4 V550L kinase. The GI50 (at Ba/F3 ETV6-FGFR4 cells; in assay [1]) was not above 10 nM in each case.
As for `C=CC(=O)Nc1cc(N2CCC(N(C)CC(C)(C)O)CC2)ccc1Nc1ncc(C#N)c(Nc2ccccc2OC(C)C)n1` [Example 67, N-(2-((5-cyano-4-((2-isopropoxyphenyl)amino)pyrimidin-2-yl)amino)-5-(4-((2-hydroxy-2-methylpropyl) (methyl)amino)piperidin-1-yl)phenyl) acrylamide], the IC50 at FGFR4 kinase was 10 to 50 nM; on FGFR4 V550L kinase it was not above 10 nM. Further, the GI50 (on Ba/F3 ETV6-FGFR4 cells; in assay [1]) was not above 10 nM throughout.
Consider `C=CC(=O)Nc1cc(N2CCC(N(C)CCCO)CC2)ccc1Nc1ncc(C#N)c(Nc2ccccc2OC(C)C)n1` [Example 68, N-(2-((5-cyano-4-((2-isopropoxyphenyl)amino)pyrimidin-2-yl)amino)-5-(4-((3-hydroxypropyl) (methyl)amino)piperidin-1-yl)phenyl) acrylamide], for which the half-inhibitory concentration (IC50) against FGFR4 kinase and against FGFR4 V550L kinase was not above 10 nM each time. The GI50 (at Ba/F3 ETV6-FGFR4 cells; in assay [1]) was not above 10 nM in each case.
On to `C=CC(=O)Nc1cc(N2CCC(N(C)CCCOC)CC2)ccc1Nc1ncc(C#N)c(Nc2ccccc2OC(C)C)n1` [Example 69, N-(2-((5-cyano-4-((2-isopropoxyphenyl)amino)pyrimidin-2-yl)amino)-5-(4-((3-methoxypropyl) (methyl)amino)piperidin-1-yl)phenyl) acrylamide], for which the IC50 on FGFR4 kinase and at FGFR4 V550L kinase was not above 10 nM in each case. In addition, the GI50 (at Ba/F3 ETV6-FGFR4 cells; in assay [1]) was not above 10 nM each time.
`C=CC(=O)Nc1cc(N2CCC(N3CCC3)CC2)ccc1Nc1ncc(C#N)c(Nc2ccccc2OC(C)C)n1` [Example 70, N-(5-(4-(azetidin-1-yl)piperidin-1-yl)-2-((5-cyano-4-((2-isopropoxyphenyl)amino)pyrimidin-2-yl)amino)phenyl) acrylamide]: the IC50 against FGFR4 kinase was 50 to 100 nM; on FGFR4 V550L kinase, not above 10 nM. In addition, the GI50 (at Ba/F3 ETV6-FGFR4 cells; in assay [1]) was not above 10 nM throughout.
Consider `C=CC(=O)Nc1cc(N2CCC(N3CCC(F)(F)CC3)CC2)ccc1Nc1ncc(C#N)c(Nc2ccccc2OC(C)C)n1` [Example 71, N-(2-((5-cyano-4-((2-isopropoxyphenyl)amino)pyrimidin-2-yl)amino)-5-(4,4-difluoro-[1,4-bipiperidin]-1′-yl)phenyl) acrylamide], for which the half-maximal inhibitory concentration (IC50) at FGFR4 kinase was not above 10 nM; at FGFR4 V550L kinase, 50 to 100 nM. For the same compound, the GI50 was not above 10 nM at Ba/F3 ETV6-FGFR4 cells and 10 to 50 nM in assay [1].
With `C=CC(=O)Nc1cc(N2CCC(N(C)C3COC3)CC2)ccc1Nc1ncc(C#N)c(Nc2ccccc2OC(C)C)n1` [Example 72, N-(2-((5-cyano-4-((2-isopropoxyphenyl)amino)pyrimidin-2-yl)amino)-5-(4-(methyl(oxetan-3-yl)amino)piperidin-1-yl)phenyl) acrylamide], the values for the IC50 at FGFR4 kinase and against FGFR4 V550L kinase were not above 10 nM and 10 to 50 nM, respectively. The GI50 (on Ba/F3 ETV6-FGFR4 cells; in assay [1]) was not above 10 nM each time.
On to `C=CC(=O)Nc1cc(N2CCC(N(C)CCSC)CC2)ccc1Nc1ncc(C#N)c(Nc2ccccc2OC(C)C)n1` [Example 73], for which the half-maximal inhibitory concentration (IC50) at FGFR4 kinase and against FGFR4 V550L kinase was not above 10 nM throughout. In addition, the GI50 (on Ba/F3 ETV6-FGFR4 cells; in assay [1]) was not above 10 nM each time.
Consider `C=CC(=O)Nc1cc(N2CCC(N(C)CCCSC)CC2)ccc1Nc1ncc(C#N)c(Nc2ccccc2OC(C)C)n1` [Example 74], for which the IC50 against FGFR4 kinase and against FGFR4 V550L kinase was not above 10 nM in each case. Moreover, the GI50 is not above 10 nM on Ba/F3 ETV6-FGFR4 cells and 10 to 50 nM in assay [1].
Take `C=CC(=O)Nc1cc(N2CCC(N(C)CCCS(C)(=O)=O)CC2)ccc1Nc1ncc(C#N)c(Nc2ccccc2OC(C)C)n1` [Example 75, N-(2-((5-cyano-4-((2-isopropoxyphenyl)amino)pyrimidin-2-yl)amino)-5-(4-(methyl(3-(methylsulfonyl)propyl)amino)piperidin-1-yl)phenyl) acrylamide]: the IC50 against FGFR4 kinase and on FGFR4 V550L kinase was not above 10 nM each time. Moreover, the GI50 (at Ba/F3 ETV6-FGFR4 cells; in assay [1]) was not above 10 nM throughout.
For the compound `C=CC(=O)Nc1cc(N2CCC(N3CCS(=O)(=O)CC3)CC2)ccc1Nc1ncc(C#N)c(Nc2ccccc2OC(C)C)n1` [Example 76, N-(2-((5-cyano-4-((2-isopropoxyphenyl)amino)pyrimidin-2-yl)amino)-5-(4-(1,1-dioxidothiomorpholino)piperidin-1-yl)phenyl) acrylamide], the 50% inhibitory concentration (IC50) against FGFR4 kinase and against FGFR4 V550L kinase was 10 to 50 nM each time. Further, the GI50 (on Ba/F3 ETV6-FGFR4 cells; in assay [1]) was not above 10 nM in each case.
Turning to `C=CC(=O)Nc1cc(N2CCC(N(C)C3CCOC3)CC2)ccc1Nc1ncc(C#N)c(Nc2ccccc2OC(C)C)n1` (stereo not shown) [Example 77, N-(2-((5-cyano-4-((2-isopropoxyphenyl)amino)pyrimidin-2-yl)amino)-5-(4-(methyl (tetrahydrofuran-3-yl)amino)piperidin-1-yl)phenyl) acrylamide], the IC50 against FGFR4 kinase and on FGFR4 V550L kinase was not above 10 nM each time. The GI50 (on Ba/F3 ETV6-FGFR4 cells; in assay [1]) was not above 10 nM throughout.

As usually defined, the IC50 is the concentration that inhibits the measured activity by half. The low end stands for greater potency in that assay, the high end for weaker potency in that assay.
